Experimental data published in patent publication US11414439B2, “Modulators of cystic fibrosis transmembrane conductance regulator, pharmaceutical compositions, methods of treatment, and process for making the modulator” (Vertex Pharmaceuticals Incorporated, priority 2018, dated 2022).

Test system: CFTR
Assay: CFTR modulating activity (Table 6; one or more of the disclosed assays, e.g. enteroid membrane potential dye assay); note: key: Active; ND-not detected
Format: cell-based, human
Settings: generated using one or more of the assays disclosed herein
From the text: Human intestinal epithelial enteroid cells may be obtained from the Hubrecht Institute for Developmental Biology and Stem Cell Research, Utrecht, The Netherlands and expanded in T-Flasks as previously described (Dekkers J F, Wiegerinck C L, de Jonge H R, Bronsveld I, Janssens H M, de Winter-de Groot K M, Brandsma A M, de Jong N W M, Bijvelds M J C, Scholte B J, Nieuwenhuis E E S, van den Brink S, Clevers H, van der Ent C K, Middendorp S and M Beekman J M. A functional CFTR assay using primary cystic fibrosis intestinal organoids. Nat Med. 2013 July; 19(7):939-45).
Cells may be recovered in cell recovery solution, collected by centrifugation at 650 rpm for 5 min at 4° C., resuspended in TryPLE and incubated for 5 min at 37° C. Cells can then be collected by centrifugation at 650 rpm for 5 min at 4° C. and resuspended in IEMM containing 10 μM ROCK inhibitor (RI). The cell suspension is then passed through a 40 μm cell strainer and resuspended at 1×10^6 cells/mL in IEMM containing 10 μM RI. Cells may be seeded at 5000 cells/well into multi-well plates and incubated for overnight at 37° C., 95% humidity and 5% CO2 prior to assay.
Enteroid cells may be incubated with test compound in IEMM for 18-24 hours at 37° C., 95% humidity and 5% CO2. Following compound incubations, a membrane potential dye assay can be employed using a FLIPR Tetra to directly measure the potency and efficacy of the test compound on CFTR-mediated chloride transport following acute addition of 10 μM forskolin and 300 nM N-[2,4-bis(1,1-dimethylethyl)-5-hydroxyphenyl]-1,4-dihydro-4-oxoquinoline-3-carboxamide. Briefly, cells are washed 5 times in Bath 1 Buffer. Bath 1 Dye Solution is added and the cells are incubated for 25 min at room temperature. Following dye incubation, cells are washed 3 times in Chloride Free Dye Solution. Chloride transport is initiated by addition of Chloride Free Dye Stimulation Solution and the fluorescence signal is read for 15 min. The CFTR-mediated chloride transport for each condition may be determined from the AUC of the fluorescence response to acute forskolin and 300 nM N-[2,4-bis(1,1-dimethylethyl)-5-hydroxyphenyl]-1,4-dihydro-4-oxoquinoline-3-carboxamide stimulation.
Chloride transport may be expressed as a percentage of the chloride transport following treatment with one or more reference standards or positive controls. Suitable reference standards/controls include one or more of Compound II, Compound III, Compound IV, and Compound A. Compound A is:
Table 6 confirms CFTR modulating activity for representative compounds of the invention generated using one or more of the assays disclosed herein.

Compound	CFTR Modulating Activity
Cc1nn(C)cc1S(=O)(=O)NC(=O)c1ccc(-n2ccc([Si](C)(C)CCC(C)(C)C)n2)nc1N1C[C@@H](C)CC1(C)C [Compound (2-1), 6-[3-[3,3-Dimethylbutyl(dimethyl)silyl]pyrazol-1-yl]-N-(1,3-dimethylpyrazol-4-yl)sulfonyl-2-[(4S)-2,2,4-trimethylpyrrolidin-1-yl]pyridine-3-carboxamide]	Active
Cc1nn(C)cc1S(=O)(=O)NC(=O)c1ccc(-n2ccc(OCCC[Si](C)(C)C)n2)nc1N1C[C@@H](C)CC1(C)C [Compound (2-6), N-(1,3-Dimethylpyrazol-4-yl)sulfonyl-2-[(4S)-2,2,4-trimethylpyrrolidin-1-yl]-6-[3-(3-trimethylsilylpropoxy)pyrazol-1-yl]pyridine-3-carboxamide]	Active
Cc1nn(C)cc1S(=O)(=O)NC(=O)c1ccc(-n2ccc([Si](C)(C)C)n2)nc1N1C[C@@H](C)CC1(C)C [Compound (2-12), N-(1,3-Dimethylpyrazol-4-yl)sulfonyl-2-[(4S)-2,2,4-trimethylpyrrolidin-1-yl]-6-(3-trimethylsilylpyrazol-1-yl)pyridine-3-carboxamide]	Active
Cc1nn(C)cc1S(=O)(=O)NC(=O)c1ccc(-n2ccc([Si](C)(C)C(C)(C)C)n2)nc1N1C[C@@H](C)CC1(C)C [Compound (2-10), 6-[3-[tert-Butyl(dimethyl)silyl]pyrazol-1-yl]-N-(1,3-dimethylpyrazol-4-yl)sulfonyl-2-[(4S)-2,2,4-trimethylpyrrolidin-1-yl]pyridine-3-carboxamide]	Active
Cc1nn(C)cc1S(=O)(=O)NC(=O)c1ccc(-n2ccc(OC[Si](C)(C)C(C)(C)C)n2)nc1N1C[C@@H](C)CC1(C)C [Compound (2-11), 6-[3-[[tert-Butyl(dimethyl)silyl]methoxy]pyrazol-1-yl]-N-(1,3-dimethylpyrazol-4-yl)sulfonyl-2-[(4S)-2,2,4-trimethylpyrrolidin-1-yl]pyridine-3-carboxamide]	Active
Cc1nn(C)cc1S(=O)(=O)NC(=O)c1ccc(-n2ccc([Si](C)(C)CCC(F)(F)F)n2)nc1N1C[C@@H](C)CC1(C)C [Compound (2-7), N-(1,3-Dimethylpyrazol-4-yl)sulfonyl-6-[3-[dimethyl(3,3,3-trifluoropropyl)silyl]pyrazol-1-yl]-2-[(4S)-2,2,4-trimethylpyrrolidin-1-yl]pyridine-3-carboxamide]	Active
Cc1nn(C)cc1S(=O)(=O)NC(=O)c1ccc(-n2ccc(OC[Si](C)(C)C)n2)nc1N1C[C@@H](C)CC1(C)C [Compound (2-3), N-(1,3-Dimethylpyrazol-4-yl)sulfonyl-2-[(4S)-2,2,4-trimethylpyrrolidin-1-yl]-6-[3-(trimethylsilylmethoxy)pyrazol-1-yl]pyridine-3-carboxamide]	Active
Cc1nn(C)cc1S(=O)(=O)NC(=O)c1ccc(-n2ccc(OCC[Si](C)(C)C)n2)nc1N1C[C@@H](C)CC1(C)C [Compound (2-4), N-(1,3-dimethylpyrazol-4-yl)sulfonyl-2-[(4S)-2,2,4-trimethylpyrrolidin-1-yl]-6-[3-(2-trimethylsilylethoxy)pyrazol-1-yl]pyridine-3-carboxamide]	Active
Cc1nn(C)cc1S(=O)(=O)NC(=O)c1ccc(-n2ccc(OCCC3([Si](C)(C)C)CC3)n2)nc1N1C[C@@H](C)CC1(C)C [Compound (2-2), N-(1,3-dimethylpyrazol-4-yl)sulfonyl-2-[(4S)-2,2,4-trimethylpyrrolidin-1-yl]-6-[3-[2-(1-trimethylsilylcyclopropyl)ethoxy]pyrazol-1-yl]pyridine-3-carboxamide]	Active
Cc1nn(C)cc1S(=O)(=O)NC(=O)c1ccc(-n2ccc(OCC(C)(C)C(F)(F)F)n2)nc1N1CC([Si](C)(C)C)CC1(C)C (single isomer, unassigned) [(2-8) Enantiomer 2]	Active
Cc1nn(C)cc1S(=O)(=O)NC(=O)c1ccc(-n2ccc(OCC(C)(C)C(F)(F)F)n2)nc1N1C[C@@H](C)CC1(C)[Si](C)(C)C (single isomer, unassigned) [(2-9) Stereoisomer 1]	Active
Cc1nn(C)cc1S(=O)(=O)NC(=O)c1ccc([Si](C)(C)C)nc1N1C[C@@H](C)CC1(C)C [Compound (2-5), N-(1,3-dimethylpyrazol-4-yl)sulfonyl-2-[(4S)-2,2,4-trimethylpyrrolidin-1-yl]-6-trimethylsilyl-pyridine-3-carboxamide]	Active
